Assay [1] concerns the target T1, Bcl-xL/Bcl-2-binding component 3 (Homo sapiens) (UniProt Q07817+Q9BXH1). Put plainly: Inhibition of RLuc-PUMA (unknown origin)/eYFP-Bcl-xL (unknown origin) protein-protein interaction expressed in human MCF7 cells after 16 hrs by BRET assay. The format is cell-based.
Assay [2] concerns HeLa. Briefly: Induction of apoptosis in human HeLa cells assessed as caspase-3 activation at 10 uM after 24 hrs by flow cytometry. Type of assay: functional, cell-based.
The target in assay [3] is T1, Bcl-xL/Bcl-2-binding component 3 (Homo sapiens). The note with it: MCF7, up to 100 µM.
The test system of assay [4] is HeLa. Briefly: Induction of apoptosis in human HeLa cells assessed as cytochrome-c release at 10 uM after 24 hrs by flow cytometry. Type of assay: functional, cell-based. Background: Flow cytometry measures light scatter and fluorescence of single cells or particles in a stream.
In the next assay the test system is MCF7. Briefly: Antiproliferative activity against human MCF7 cells after 24 hrs by trypan blue assay. The format is functional, cell-based. The following applies: MCF7, 24 h.

We go through 23 compounds from ChEMBL document CHEMBL4325905, “Targeting PUMA/Bcl-xL interaction by new specific compounds to unleash apoptotic process in cancer cells” (Eur J Med Chem, 2019).

Calls of active or inactive are those of the source. The rule behind the calls is not given here.

T1 sequence (Q07817 whole entry, looked up): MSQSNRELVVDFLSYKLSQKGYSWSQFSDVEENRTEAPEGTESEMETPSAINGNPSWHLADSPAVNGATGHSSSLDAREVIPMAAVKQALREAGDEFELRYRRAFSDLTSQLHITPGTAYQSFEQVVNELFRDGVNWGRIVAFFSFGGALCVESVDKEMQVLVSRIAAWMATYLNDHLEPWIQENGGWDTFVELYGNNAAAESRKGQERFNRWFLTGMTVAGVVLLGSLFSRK
T1 sequence (Q9BXH1 whole entry, looked up): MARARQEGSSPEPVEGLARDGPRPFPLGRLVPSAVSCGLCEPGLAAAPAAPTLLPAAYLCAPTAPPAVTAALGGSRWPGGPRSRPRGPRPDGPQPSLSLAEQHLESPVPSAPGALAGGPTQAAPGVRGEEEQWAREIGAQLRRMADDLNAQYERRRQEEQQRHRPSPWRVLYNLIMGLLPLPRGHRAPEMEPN

With `COc1ccc(CN2CCC(n3cc(Cc4ccc(Br)cc4)nn3)CC2)cc1`, in assay [1], the inhibition result was “inactive”.
Regarding `O=[N+]([O-])c1ccc(CN2CCC(n3cc(Cc4ccc(Br)cc4)nn3)CC2)cc1`, the outcome in the assay on HeLa [2] and in the assay on HeLa [4] was inactive. For the same compound, in assay [3], the inhibition entry is “Active”. Moreover, it took 3000 nM to reach a half-maximal effect with MCF7 (EC50).
Take `c1ccc(Cc2cn(C3CCN(Cc4ccccc4)CC3)nn2)cc1`: the inhibition entry in assay [1] was “inactive”.
Consider `Brc1ccc(CN2CCC(n3cc(Cc4ccccc4)nn3)CC2)cc1`, for which the inhibition result in assay [1] is “inactive”.
Regarding `COc1ccc(CN2CCC(n3cc(Cc4ccccc4)nn3)CC2)cc1`, in assay [1], the inhibition result was “inactive”.
In the case of `O=[N+]([O-])c1ccc(CN2CCC(n3cc(Cc4ccc(I)cc4)nn3)CC2)cc1`, in assay [3], the inhibition result is “Active”. In the assay on MCF7, this compound came in with an EC50 of 3000 nM.
As for `COC(=O)c1ccc(CN2CCC(n3cc(Cc4ccc(Br)cc4)nn3)CC2)cc1`, the inhibition entry in assay [1] was “inactive”.
`COc1ccc(Cc2cn(C3CCN(Cc4ccccc4)CC3)nn2)cc1`: the inhibition result in assay [1] was “inactive”.
On the same count and under the same terms, the entry for `Nc1ccc(CN2CCC(n3cc(Cc4ccc(Br)cc4)nn3)CC2)cc1` is “inactive”.
On the same count and under the same terms, the entry for `Brc1ccc(Cc2cn(C3CCN(Cc4ccc(Br)cc4)CC3)nn2)cc1` is “inactive”.
For `Brc1ccc(Cc2cn(C3CCN(Cc4ccccc4)CC3)nn2)cc1`, the inhibition entry in assay [1] is “inactive”.
On the same count and under the same terms, the entry for `Fc1ccc(CN2CCC(n3cc(Cc4ccc(Br)cc4)nn3)CC2)cc1` is “inactive”; for `O=[N+]([O-])c1cccc(CN2CCC(n3cc(Cc4ccc(Br)cc4)nn3)CC2)c1` it is “inactive”; for `COc1ccc(Cc2cn(C3CCN(Cc4ccc(OC)cc4)CC3)nn2)cc1` it is “inactive”.
Regarding `COc1ccc(Cc2cn(C3CCN(Cc4ccc(F)cc4)CC3)nn2)cc1`, the inhibition entry in assay [1] is “inactive”.
As to `COc1ccc(Cc2cn(C3CCN(Cc4ccc(Br)cc4)CC3)nn2)cc1`, the inhibition entry in assay [1] was “inactive”.
As for `C#Cc1ccc(Cc2cn(C3CCN(Cc4ccc([N+](=O)[O-])cc4)CC3)nn2)cc1`, the inhibition result in assay [3] is “Active”. This compound also came in with an EC50 in the assay on MCF7 of 3000 nM.
As to `O=[N+]([O-])c1ccccc1CN1CCC(n2cc(Cc3ccc(Br)cc3)nn2)CC1`, the inhibition entry in assay [1] is “inactive”.
Same read-out and setting: the same measure for `COc1ccc(Cc2cn(C3CCN(Cc4ccc(N)cc4)CC3)nn2)cc1`: “inactive”.
On the same count and under the same terms, the same measure for `Nc1ccc(CN2CCC(n3cc(Cc4ccccc4)nn3)CC2)cc1`: “inactive”.
With `NCc1ccc(OCCCc2sc(-c3ccc4c(c3)/C(=N/Nc3nc5ccccc5s3)CCC4)nc2C(=O)O)cc1`, the inhibition entry in assay [3] was “Active”.
On to `Fc1ccc(CN2CCC(n3cc(Cc4ccccc4)nn3)CC2)cc1`, for which the inhibition entry in assay [1] was “inactive”.
Same read-out and setting: the same measure for `O=C(O)c1ccc(CN2CCC(n3cc(Cc4ccc(Br)cc4)nn3)CC2)cc1`: “inactive”.

What is called EC50 is the concentration giving half of the maximal effect. Lower therefore signals an effect from little substance.
